This note sets out measurements from US20240300932A1, “N-PHENYLIMINE DERIVATIVE AND PREPARATION METHOD AND USE THEREOF” (Guizhou University, priority 2023, published 2024).

The subject of data set [1] is Echinochloa crusgalli. Put plainly: Post-emergence herbicidal activity test (stem and leaf spray, pot culture). It is filed as in vivo. Particulars: 3 weeks after spraying. In short, it runs like this:
(§1)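 Graded 0–5 on fresh-weight growth control rate 3 weeks after a single spray-tower application at 10, 5 or 2.5 g/mu. Compounds in acetone with Tween 80 and methyl oleate synergist (1.5 liters/ha), applied to greenhouse weeds at 2- to 3-leaf stage.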

Data set [2] has as its system Portulaca oleracea. The data set is described as above. It is filed as in vivo. Particulars: 3 weeks after spraying. In short, it runs like this:
as §1

In data set [3] the test system is Setaria viridis. Described as above. It is filed as in vivo. Conditions: 3 weeks after spraying. In short, it runs like this:
as §1

In data set [4] the test system is Amaranthus retroflexus. The description is as above. It is filed as in vivo. Particulars: 3 weeks after spraying. A digest of the protocol: as §1
Data set [5] relates to Abutilon theophrasti. Described as above. Particulars: 3 weeks after spraying. It is filed as in vivo. In short, it runs like this:
as §1

Data set [6] deals with Trifoliumre pensL. Described as above. It is filed as in vivo. Particulars: 3 weeks after spraying. In short, it runs like this:
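Pot-grown weeds in loam (pH 7), greenhouse at 20–30 °C, sprayed once post-emergence at the 2–3-leaf stage. Compound in acetone with Tween 80 plus methyl oleate oil (1.5 L/ha), applied at 10, 5 and 2.5 g/mu by spray tower. Effect scored 3 weeks after spraying, averaged over three repeats.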

Take `Cc1ccc(-c2nnc(COc3cc(N4C(=O)C5=C(CCCC5)C4=O)c(F)cc3Cl)o2)cc1` [Compound B13, 2-(4-chloro-2-fluoro-5-((5-(4-tolyl)-1,3,4-oxadiazole-2-yl)methoxy)phenyl)-4,5,6,7-tetrahydro-1H-isoindole-1,3(2H)-dione]: the melting point (in general, the temperature of the solid-liquid transition) was in the range of 104 to 106 °C. In addition, the “Post-emergence herbicidal activity, E. crusgalli (grade)” value in data set [1] (dosage 2.5 g/mu) was 1 (Grade 1: the growth control rate is greater than or equal to 5% and less than 20%). Further, the “Post-emergence herbicidal activity, E. crusgalli (grade)” value in data set [1] (dosage 5 g/mu) is 2 (Grade 2: the growth control rate is greater than or equal to 20% and less than 40%). Besides, in data set [1] (dosage 10 g/mu), the “Post-emergence herbicidal activity, E. crusgalli (grade)” value is 3 (Grade 3: the growth control rate is greater than or equal to 40% and less than 60%). Also, the “Post-emergence herbicidal activity, P. oleracea (grade)” value in data set [2] (dosage 2.5 g/mu) is on record as 5 (Grade 5: the growth control rate is greater than or equal to 85%). For the same compound, the “Post-emergence herbicidal activity, P. oleracea (grade)” value in data set [2] (dosage 5 g/mu) was 5 (Grade 5: the growth control rate is greater than or equal to 85%). Further, the “Post-emergence herbicidal activity, P. oleracea (grade)” value in data set [2] (dosage 10 g/mu) is 5 (Grade 5: the growth control rate is greater than or equal to 85%). The “Post-emergence herbicidal activity, S. viridis (grade)” value in data set [3] (dosage 2.5 g/mu) was 2 (Grade 2: the growth control rate is greater than or equal to 20% and less than 40%). In data set [3] (dosage 5 g/mu), the “Post-emergence herbicidal activity, S. viridis (grade)” value is 3 (Grade 3: the growth control rate is greater than or equal to 40% and less than 60%). For the same compound, the “Post-emergence herbicidal activity, S. viridis (grade)” value in data set [3] (dosage 10 g/mu) was 4 (Grade 4: the growth control rate is greater than or equal to 60% and less than 85%). Moreover, the “Post-emergence herbicidal activity, A. retroflexus (grade)” value in data set [4] (dosage 2.5 g/mu) is 5 (Grade 5: the growth control rate is greater than or equal to 85%). The “Post-emergence herbicidal activity, A. retroflexus (grade)” value in data set [4] (dosage 5 g/mu) is given as 5 (Grade 5: the growth control rate is greater than or equal to 85%). For the same compound, in data set [4] (dosage 10 g/mu), the “Post-emergence herbicidal activity, A. retroflexus (grade)” value is reported as 5 (Grade 5: the growth control rate is greater than or equal to 85%). For the same compound, the “Post-emergence herbicidal activity, A. theophrasti (grade)” value in data set [5] (dosage 2.5 g/mu) is reported as 5 (Grade 5: the growth control rate is greater than or equal to 85%). Moreover, in data set [5] (dosage 5 g/mu), the “Post-emergence herbicidal activity, A. theophrasti (grade)” value is 5 (Grade 5: the growth control rate is greater than or equal to 85%). The “Post-emergence herbicidal activity, A. theophrasti (grade)” value in data set [5] (dosage 10 g/mu) was 5 (Grade 5: the growth control rate is greater than or equal to 85%). Besides, the “Post-emergence herbicidal activity, Trifoliumre pensL. (grade)” value in data set [6] (dosage 2.5 g/mu) is recorded as 5 (Grade 5: the growth control rate is greater than or equal to 85%). Also, the “Post-emergence herbicidal activity, Trifoliumre pensL. (grade)” value in data set [6] (dosage 5 g/mu) was 5 (Grade 5: the growth control rate is greater than or equal to 85%). Moreover, the “Post-emergence herbicidal activity, Trifoliumre pensL. (grade)” value in data set [6] (dosage 10 g/mu) was 5 (Grade 5: the growth control rate is greater than or equal to 85%).
Take `O=C(Nc1cc(N2C(=O)C3=C(CCCC3)C2=O)c(F)cc1Cl)C1CCCCC1` [Compound D10, N-(2-chloro-5-(1,3-dioxo-1,3,4,5,6,7-hexahydro-2H-isoindole-2-yl)-4-fluorophenyl)cyclohexanecarboxamide]: the melting point was in the range of 93 to 97 °C. Besides, the “Post-emergence herbicidal activity, E. crusgalli (grade)” value in data set [1] (dosage 10 g/mu) was 3 (Grade 3: the growth control rate is greater than or equal to 40% and less than 60%). Besides, the “Post-emergence herbicidal activity, P. oleracea (grade)” value in data set [2] (dosage 10 g/mu) is given as 5 (Grade 5: the growth control rate is greater than or equal to 85%). Further, in data set [3] (dosage 10 g/mu), the “Post-emergence herbicidal activity, S. viridis (grade)” value is 4 (Grade 4: the growth control rate is greater than or equal to 60% and less than 85%). For the same compound, the “Post-emergence herbicidal activity, A. retroflexus (grade)” value in data set [4] (dosage 10 g/mu) was 5 (Grade 5: the growth control rate is greater than or equal to 85%). The “Post-emergence herbicidal activity, A. theophrasti (grade)” value in data set [5] (dosage 10 g/mu) is listed as 5 (Grade 5: the growth control rate is greater than or equal to 85%). The “Post-emergence herbicidal activity, Trifoliumre pensL. (grade)” value in data set [6] (dosage 10 g/mu) is given as 5 (Grade 5: the growth control rate is greater than or equal to 85%).
For the compound `Cc1ccc(Br)cc1-c1noc(COc2cc(N3C(=O)C4=C(CCCC4)C3=O)c(F)cc2Cl)n1` [Compound A1, 2-(5-((3-(5-bromo-2-tolyl)-1,2,4-oxadiazole-5-yl)methoxy)-4-chloro-2-fluorophenyl)-4,5,6,7-tetrahydro-1H-isoindole-1,3(2H)-dione], the melting point is 101 to 105 °C. Moreover, the “Post-emergence herbicidal activity, E. crusgalli (grade)” value in data set [1] (dosage 2.5 g/mu) is 1 (Grade 1: the growth control rate is greater than or equal to 5% and less than 20%). Also, the “Post-emergence herbicidal activity, E. crusgalli (grade)” value in data set [1] (dosage 5 g/mu) was 2 (Grade 2: the growth control rate is greater than or equal to 20% and less than 40%). Moreover, in data set [1] (dosage 10 g/mu), the “Post-emergence herbicidal activity, E. crusgalli (grade)” value was 3 (Grade 3: the growth control rate is greater than or equal to 40% and less than 60%). Moreover, the “Post-emergence herbicidal activity, P. oleracea (grade)” value in data set [2] (dosage 2.5 g/mu) is 4 (Grade 4: the growth control rate is greater than or equal to 60% and less than 85%). The “Post-emergence herbicidal activity, P. oleracea (grade)” value in data set [2] (dosage 5 g/mu) is on record as 5 (Grade 5: the growth control rate is greater than or equal to 85%). Besides, in data set [2] (dosage 10 g/mu), the “Post-emergence herbicidal activity, P. oleracea (grade)” value is 5 (Grade 5: the growth control rate is greater than or equal to 85%). Besides, the “Post-emergence herbicidal activity, S. viridis (grade)” value in data set [3] (dosage 2.5 g/mu) is 2 (Grade 2: the growth control rate is greater than or equal to 20% and less than 40%). Further, the “Post-emergence herbicidal activity, S. viridis (grade)” value in data set [3] (dosage 5 g/mu) is 3 (Grade 3: the growth control rate is greater than or equal to 40% and less than 60%). For the same compound, the “Post-emergence herbicidal activity, S. viridis (grade)” value in data set [3] (dosage 10 g/mu) is 4 (Grade 4: the growth control rate is greater than or equal to 60% and less than 85%). Besides, in data set [4] (dosage 2.5 g/mu), the “Post-emergence herbicidal activity, A. retroflexus (grade)” value is reported as 5 (Grade 5: the growth control rate is greater than or equal to 85%). The “Post-emergence herbicidal activity, A. retroflexus (grade)” value in data set [4] (dosage 5 g/mu) is 5 (Grade 5: the growth control rate is greater than or equal to 85%). Also, in data set [4] (dosage 10 g/mu), the “Post-emergence herbicidal activity, A. retroflexus (grade)” value is listed as 5 (Grade 5: the growth control rate is greater than or equal to 85%). In addition, the “Post-emergence herbicidal activity, A. theophrasti (grade)” value in data set [5] (dosage 2.5 g/mu) is recorded as 5 (Grade 5: the growth control rate is greater than or equal to 85%). The “Post-emergence herbicidal activity, A. theophrasti (grade)” value in data set [5] (dosage 5 g/mu) is 5 (Grade 5: the growth control rate is greater than or equal to 85%). The “Post-emergence herbicidal activity, A. theophrasti (grade)” value in data set [5] (dosage 10 g/mu) is 5 (Grade 5: the growth control rate is greater than or equal to 85%). For the same compound, the “Post-emergence herbicidal activity, Trifoliumre pensL. (grade)” value in data set [6] (dosage 2.5 g/mu) was 4 (Grade 4: the growth control rate is greater than or equal to 60% and less than 85%). For the same compound, the “Post-emergence herbicidal activity, Trifoliumre pensL. (grade)” value in data set [6] (dosage 5 g/mu) is 5 (Grade 5: the growth control rate is greater than or equal to 85%). For the same compound, the “Post-emergence herbicidal activity, Trifoliumre pensL. (grade)” value in data set [6] (dosage 10 g/mu) was 5 (Grade 5: the growth control rate is greater than or equal to 85%).
In the case of `O=C1C2=C(CCCC2)C(=O)N1c1cc(OCc2nnc(-c3cccc(Cl)c3)o2)c(Cl)cc1F` [Compound B2, 2-(4-chloro-5-((5-(3-chlorophenyl)-1,3,4-oxadiazole-2-yl)methoxy)-2-fluorophenyl)-4,5,6,7-tetrahydro-1H-isoindole-1,3(2H)-dione], the melting point lay in the range of 158 to 162 °C. Moreover, the “Post-emergence herbicidal activity, E. crusgalli (grade)” value in data set [1] (dosage 2.5 g/mu) is 1 (Grade 1: the growth control rate is greater than or equal to 5% and less than 20%). In addition, the “Post-emergence herbicidal activity, E. crusgalli (grade)” value in data set [1] (dosage 5 g/mu) is 2 (Grade 2: the growth control rate is greater than or equal to 20% and less than 40%). Besides, in data set [1] (dosage 10 g/mu), the “Post-emergence herbicidal activity, E. crusgalli (grade)” value was 3 (Grade 3: the growth control rate is greater than or equal to 40% and less than 60%). For the same compound, the “Post-emergence herbicidal activity, P. oleracea (grade)” value in data set [2] (dosage 2.5 g/mu) is 5 (Grade 5: the growth control rate is greater than or equal to 85%). Moreover, the “Post-emergence herbicidal activity, P. oleracea (grade)” value in data set [2] (dosage 5 g/mu) is 5 (Grade 5: the growth control rate is greater than or equal to 85%). In addition, the “Post-emergence herbicidal activity, P. oleracea (grade)” value in data set [2] (dosage 10 g/mu) is given as 5 (Grade 5: the growth control rate is greater than or equal to 85%). Moreover, in data set [3] (dosage 2.5 g/mu), the “Post-emergence herbicidal activity, S. viridis (grade)” value was 2 (Grade 2: the growth control rate is greater than or equal to 20% and less than 40%). Moreover, the “Post-emergence herbicidal activity, S. viridis (grade)” value in data set [3] (dosage 5 g/mu) is 3 (Grade 3: the growth control rate is greater than or equal to 40% and less than 60%). The “Post-emergence herbicidal activity, S. viridis (grade)” value in data set [3] (dosage 10 g/mu) is 4 (Grade 4: the growth control rate is greater than or equal to 60% and less than 85%). Also, the “Post-emergence herbicidal activity, A. retroflexus (grade)” value in data set [4] (dosage 2.5 g/mu) was 5 (Grade 5: the growth control rate is greater than or equal to 85%). For the same compound, in data set [4] (dosage 5 g/mu), the “Post-emergence herbicidal activity, A. retroflexus (grade)” value was 5 (Grade 5: the growth control rate is greater than or equal to 85%). In addition, in data set [4] (dosage 10 g/mu), the “Post-emergence herbicidal activity, A. retroflexus (grade)” value is listed as 5 (Grade 5: the growth control rate is greater than or equal to 85%). For the same compound, in data set [5] (dosage 2.5 g/mu), the “Post-emergence herbicidal activity, A. theophrasti (grade)” value is recorded as 5 (Grade 5: the growth control rate is greater than or equal to 85%). The “Post-emergence herbicidal activity, A. theophrasti (grade)” value in data set [5] (dosage 5 g/mu) is 5 (Grade 5: the growth control rate is greater than or equal to 85%). Further, the “Post-emergence herbicidal activity, A. theophrasti (grade)” value in data set [5] (dosage 10 g/mu) was 5 (Grade 5: the growth control rate is greater than or equal to 85%). Further, in data set [6] (dosage 2.5 g/mu), the “Post-emergence herbicidal activity, Trifoliumre pensL. (grade)” value is listed as 5 (Grade 5: the growth control rate is greater than or equal to 85%). Moreover, the “Post-emergence herbicidal activity, Trifoliumre pensL. (grade)” value in data set [6] (dosage 5 g/mu) is 5 (Grade 5: the growth control rate is greater than or equal to 85%). For the same compound, in data set [6] (dosage 10 g/mu), the “Post-emergence herbicidal activity, Trifoliumre pensL. (grade)” value is on record as 5 (Grade 5: the growth control rate is greater than or equal to 85%).
